In article PMC6832221 (Viruses, 2019):
Where two headings read alike, the source gives them in different places.

Key:
[1] = system: HCV NS3 protein expression (genotype 2a); assay: GT 2a Western blot of HCV NS3 protein in J6/JFH1 RNA-transfected Huh7.5 cells; assay type: cell-based, Hepatitis C virus; conditions: for T1/2 (time required for 50% reduction of the HCV NS3 protein): compound at 10 μM, Western blot, Huh7.5-J6/JFH1 (genotype 2a)
[2] = system: HCV NS3 protein level (genotype 1b); assay: GT 1b Western blot of HCV protein in Bart79I RNA-transfected Huh7.5 cells; assay type: cell-based, Hepatitis C virus; conditions: for T1/2 (time for 50% reduction of HCV protein): compound at 10 μM, Western blot, Huh7.5-Bart79I (genotype 1b)
[3] = In vivo pharmacokinetic study of SVF in mice; conditions: male, ICR, mouse, plasma
[4] = system: genotype 1b HCV replication (Bart79I); assay: GT 1b RT-PCR in Bart79I replicon Huh7.5 cells; assay type: cell-based, Hepatitis C virus
[5] = system: genotype 2a HCV replication (J6/JFH1); assay: GT 2a RT-PCR in J6/JFH1 RNA-transfected Huh7.5 cells; assay type: cell-based, Hepatitis C virus
[6] = system: genotype 2a HCV replication (Rluc-J6/JFH1); assay: GT 2a luciferase reporter assay in Rluc-J6/JFH1 RNA-transfected Huh7.5 cells; assay type: cell-based, Hepatitis C virus
[7] = parameters: method as in ref 25 = [25]; conditions: mice; cited from earlier work
[8] = system: Huh7.5 cells; assay: in vitro; assay type: cell-based; conditions: Table 1 summary; read-out: CC50 (M), GT 2a luciferase reporter assay
[9] = parameters: method as in ref 14 = [14]; conditions: previous study; cited from earlier work
[10] = biological target: viral helicase NS3; parameters: method as in ref 14 = [14]; conditions: previous study; cited from earlier work
[11] = system: HCV replication; parameters: method as in ref 14 = [14]; conditions: previous study, cited from earlier work
[12] = in vitro; assay type: cell-based; conditions: human; Table 1 summary; read-out: CC50 (M), GT 2a luciferase reporter assay
[13] = cited from earlier work
[14] = biological target: T1, genotype 1b HCV NS3 helicase (Hepatitis C virus genotype 1b, UniProt Q9WMX2); assay: Graphene oxide (GO)-based NS3 helicase inhibition assay; assay type: biochemical
T1 construct: 2 nM of HCV NS3 helicase in a total volume of 60 μL

[15] = read-out: EC50 (M), GT 2a Western blot, Table 1 summary
[16] = read-out: EC50 (M), GT 1b RT-PCR, Table 1 summary
[17] = read-out: EC50 (M), GT 2a RT-PCR, Table 1 summary
[18] = Hepatitis C virus, Huh7.5, read-out: EC50 (M), GT 1b Western blot
[19] = Hepatitis C virus, GETYPE2A|GT2A, Huh7.5, read-out: EC50 (M), GT 2a luciferase reporter assay, Table 1 summary

T1 sequence (Q9WMX2 1027-1657): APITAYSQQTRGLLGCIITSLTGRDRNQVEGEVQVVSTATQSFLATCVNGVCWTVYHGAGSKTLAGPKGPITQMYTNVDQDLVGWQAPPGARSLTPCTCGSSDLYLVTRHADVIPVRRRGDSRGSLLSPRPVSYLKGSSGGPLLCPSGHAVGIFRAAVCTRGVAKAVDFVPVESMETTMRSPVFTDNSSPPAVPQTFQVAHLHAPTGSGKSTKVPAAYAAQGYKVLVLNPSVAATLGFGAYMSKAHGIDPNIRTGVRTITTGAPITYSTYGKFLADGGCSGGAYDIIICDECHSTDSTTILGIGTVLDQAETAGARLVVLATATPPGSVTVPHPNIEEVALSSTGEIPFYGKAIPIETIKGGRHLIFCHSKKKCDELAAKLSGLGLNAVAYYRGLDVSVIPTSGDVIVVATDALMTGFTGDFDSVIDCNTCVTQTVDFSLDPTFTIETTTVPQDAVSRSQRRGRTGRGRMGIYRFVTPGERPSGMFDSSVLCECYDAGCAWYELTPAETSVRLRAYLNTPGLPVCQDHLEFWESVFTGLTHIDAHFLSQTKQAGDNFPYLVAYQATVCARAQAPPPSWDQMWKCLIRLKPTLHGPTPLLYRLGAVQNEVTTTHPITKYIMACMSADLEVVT

In the case of `Oc1ccc(/C=C/c2cc(O)cc3c2C(c2cc(O)cc(O)c2)C(c2ccc(O)cc2)O3)cc1` (racemic) [SVF, (±)- -viniferin], the “T1/2 (time required for 50% reduction of the HCV NS3 protein)” value [1] is reported as 37.1 h, the EC50 [1, 15] is reported as 6.4e-06 M and the “T1/2 (time for 50% reduction of HCV protein)” value [2] is reported as 13.1 h. It also gave an EC50 ([2]; read-out: EC50 (M), GT 1b Western blot, Table 1 summary) of 9e-07 M, a Cmax ([3]; ip, intraperitoneal dose of 15 mg/kg, read-out: Cmax) of 2130 ± 403 ng/mL and a Tmax ([3]; oral dose of 50 mg/kg) of 0.375 h. For the same compound, the Cmax ([3]; oral dose of 50 mg/kg, read-out: mean Cmax) was 53.5 ± 28.2 ng/mL, the EC50 [4, 16] was 1.7e-06 M and the EC50 [5, 17] was 9.3e-06 M. The EC50 ([6]; read-out: EC50 (M), GT 2a luciferase reporter assay, Table 1 summary) was 2e-07 M, the oral bioavailability [7] was “below 1%” and the CC50 [8] was greater than 1e-05 M.
In the case of `Oc1ccc([C@H]2Oc3cc(O)cc(/C=C/c4ccc5c(c4)[C@@H](c4cc(O)cc6c4[C@H](c4cc(O)cc(O)c4)[C@@H](c4ccc(O)cc4)O6)[C@H](c4ccc(O)cc4)O5)c3[C@@H]2c2cc(O)cc(O)c2)cc1` [vitisin B], the CC50 [9] is listed as greater than 10000 nM, the IC50 [10] is listed as 3 nM and the EC50 ([11]; read-out: EC50, anti-HCV activity) is listed as 6 nM.
In the case of `CC(=O)Oc1ccc(/C=C/c2cc(OC(C)=O)cc3c2C(c2cc(OC(C)=O)cc(OC(C)=O)c2)C(c2ccc(OC(C)=O)cc2)O3)cc1` (racemic) [SVF-5Ac, penta-acetylated (±)- -viniferin], the EC50 ([1]; Hepatitis C virus, GETYPE2A|GT2A, Huh7.5, read-out: EC50 (M), GT 2a Western blot, Table 1 summary) is reported as 1e-06 M, the “T1/2 (time required for 50% reduction of the HCV NS3 protein)” value [1] is reported as greater than 72 h and the EC50 [2, 18] is reported as 8e-07 M. For the same compound, the “T1/2 (time for 50% reduction of HCV protein)” value [2] was 29.6 h, the EC50 ([4]; Hepatitis C virus, GETYPE1B|GT1B, Huh7.5, read-out: EC50 (M), GT 1b RT-PCR, Table 1 summary) was 1.04e-05 M and the EC50 ([5]; Hepatitis C virus, GETYPE2A|GT2A, Huh7.5, read-out: EC50 (M), GT 2a RT-PCR, Table 1 summary) was 4.7e-06 M. It also gave an EC50 [6, 19] of 2.4e-06 M and a CC50 at 72 h [12] greater than 1e-05 M.
In the case of `Oc1ccc(/C=C/c2cc(O)cc3c2C(c2cc(O)cc(O)c2)C(c2ccc(O)cc2)O3)cc1` (stereo not shown) [viniferin], the oral bioavailability [13] is given as “less than 1%” and the EC50 ([11]; read-out: EC50 value for inhibiting HCV replication in vitro) is given as 1000 nM.
With `Oc1ccc(/C=C/c2cc(O)cc(O)c2)cc1` [resveratrol, reference compound] the “dose-dependent increase of fluorescence (helicase inhibition)” value ([14]; negative control, up to a concentration of 10 μM) was “did not”.
With `Oc1ccc(/C=C/c2cc(O)cc3c2C(c2cc(O)cc(O)c2)C(c2ccc(O)cc2)O3)cc1` (stereo not drawn) [EVF, (+)-ε-viniferin] the “T1/2 (time required for 50% reduction of the HCV NS3 protein)” value [1] was 35.1 h, the EC50 [1, 15] was 1.2e-06 M and the EC50 [2, 18] was 9e-07 M. For the same compound, the “T1/2 (time for 50% reduction of HCV protein)” value [2] was 58.2 h, the EC50 [4, 16] was 7e-06 M and the “fold more antiviral activity than SVF” value ([5]; genotype 2a RT-PCR-based HCV replication assay) was 3.2 fold. For the same compound, the EC50 [5, 17] was 2.9e-06 M, the EC50 [6, 19] was 1e-07 M and the “fold more antiviral activity than SVF” value ([6]; genotype 2a renilla luciferase-based HCV replication assay) was 2.0 fold. It also gave a CC50 at 72 h [12] greater than 1e-05 M and an IC50 ([14]; Cy5-dsDNA substrate, 2 nM HCV NS3 helicase, fluorescence Ex/Em 650/675 nm, read-out: IC50 (half maximal inhibitory concentration), NS3 helicase) of 58.7 nM.
